Experimental data published in a melting point compilation (Tetko et al.; mined from patent text by program, amines drawn as free bases though some values may be those of a salt).

Compared with `NCc1cc(-c2ccccc2)no1`, `Cc1ccc(-c2nc3ccccc3s2)cc1` is higher in melting point: 50 °C for the first, 84 to 85 °C for the second.

First: COc1ccc(C2CNC(=O)N2C)cc1OC1CC2CCC1C2 (centres undefined)
Second: COc1ccc2c(c1OC)C(=O)c1c-2c(N2CCNCC2)nc2ccc(Cl)cc12
The melting point of the first is lower: 142 to 144 °C for the first, 168 to 169 °C for the second.

Compared with `Cc1sccc1C1(c2cccc(-c3cncnc3)c2)N=C(N)N(C)C1=O` (centres undefined), `Cc1c(-c2ccncc2)[nH]c(-c2ccncc2)c1C(N)=O` is higher in melting point: 154 to 159 °C for the first, 212 to 215 °C for the second.

First: COC(=O)c1csc(-c2cc3ccccc3n2C)n1
Second: COC(=O)c1cccc(/C=C/c2ccccc2)c1
The melting point of the first is higher: 124 to 127 °C for the first, 108 to 109 °C for the second.

First: Cc1nc(-c2cn(-c3cc(C(F)(F)F)cc(-c4ccc(C(F)(F)F)cc4)n3)cn2)sc1S(=O)(=O)NC(C)(C)C
Second: O=C(Nc1ccccc1[N+](=O)[O-])c1ccc(-n2nc(C(F)(F)F)cc2C(F)(F)F)cc1
The melting point of the first is higher: greater than 250 °C for the first, 173 to 175 °C for the second.

First: CCOCc1nc2c(N)nc3cc(OCCCn4cccc4)ccc3c2n1CC(C)C
Second: CC(C)(O)Cn1c(CO)nc2c(N)nc3cc(OCc4ccccc4)ccc3c21
The melting point of the first is lower: 160 to 162 °C for the first, 284 to 286 °C for the second.

First: CSc1nnc2n1C=C(C)c1ccccc1C2
Second: CC(C(N)=O)c1cccc2c1Oc1ccccc1CC2=O (centres undefined)
The melting point of the first is lower: 129 to 130 °C for the first, 177 to 178 °C for the second.

Compared with `CCOC(=O)c1cc2cc(Oc3ccc(S(C)(=O)=O)cc3)cc(OC)c2[nH]1`, `CCOC(=O)c1ccc(NC(=O)c2c(OC)cccc2OC)cc1` is higher in melting point: 161 to 162 °C for the first, 183 to 185 °C for the second.

First: CCOC(=O)C=C(N)C(C)(C)OC(N)=O
Second: CCOC(=O)C(=NO)C(=O)OCC
The melting point of the first is higher: 109 to 111 °C for the first, 86.5 to 88 °C for the second.

First: O=CC1=CC(c2ccccc2)(c2ccccc2)CCC1=O
Second: O=C(CCN1CCC2(CC1)OC(=O)c1ccccc12)c1ccccc1
The melting point of the first is higher: 126 °C for the first, 108 to 110 °C for the second.

Compared with `COC(CN(C)C(=O)Nc1nnc(C(C)Oc2ccc(Cl)cc2Cl)s1)OC` (centres undefined), `CN(C)C(=S)SC(c1ccc(Cl)cc1Cl)C(C(c1ccc(Cl)cc1Cl)N(C)C)[N+](=O)[O-]` (centres undefined) is higher in melting point: 125 to 127 °C for the first, 152 to 154 °C for the second.

First: OCCOCCN1CCN(C2=Nc3ccccc3Sc3ccccc32)CC1
Second: CN1CCN(C2=C3N=c4cc(Cl)ccc4=C3Oc3ccccc3N2C)CC1
The melting point of the first is lower: 172 to 173 °C for the first, 187 to 188 °C for the second.

Compared with `CCOC(=O)C1CC(O)CN1C(=O)c1ccc(OC)cc1` (centres undefined), `CCOC(=O)C1Cc2c([nH]c3ccccc23)C(c2ccc(N(C)C)cc2)N1` (centres undefined) is higher in melting point: 64 °C for the first, 170 °C for the second.

First: CN(C)Cc1ccc(CSCCNC(=C[N+](=O)[O-])NCCCCCCCCCCCCNC(=C[N+](=O)[O-])NCCSCc2ccco2)o1
Second: CCCCCCCc1ccccc1C=CC(=O)c1ccc(OCC=C(C)C)cc1OCC(=O)O
The melting point of the first is lower: 69 to 72 °C for the first, 118 to 121 °C for the second.

Compared with `CN(C)c1nc2cc(NC(=O)c3c(C(=O)N4CC(F)C4)cnn3C)ccn2n1`, `CN(C)c1ccc(C(=O)Nc2cn3cc(-n4ccnc4)ccc3n2)cc1` is higher in melting point: 243 to 244 °C for the first, 247 to 248 °C for the second.

First: CCC(C)Cc1ccc(C(=O)O)cc1Br (centres undefined)
Second: CCCc1c(C(=O)C(C)C)c2ccc(C(=O)O)cc2n1Cc1ccccc1C
The melting point of the first is lower: 78.8 to 79.7 °C for the first, 186 to 188 °C for the second.

First: Cc1c(C(=O)c2ccc(F)cc2)cccc1[N+](=O)[O-]
Second: Cc1cccc2c1CCN=C2c1ccc(F)cc1
The melting point of the first is lower: 64 °C for the first, 71 to 71.5 °C for the second.

First: NC(=O)CON=C(c1ccc(Cl)cc1)c1ccc(Cl)cc1
Second: Cc1ccc(C(=O)c2[nH]c3cc(Cl)ccc3c2CC(=O)O)cc1
The melting point of the first is lower: 141 to 142 °C for the first, 182 to 184 °C for the second.

First: CCOC(=O)c1cnn2c(-c3cccc(N(CC)C(=O)OC)c3)ccnc12
Second: CCN(CC)CCCNC(=O)Cn1ncc(-c2ccc(F)cc2)c1-c1ccccc1
The melting point of the first is higher: 117 °C for the first, 82 to 83 °C for the second.

First: O=C(Cc1cccc2ccccc12)Nc1cc([C@H]2C[C@@H](NC(=O)c3ccccc3)C2)[nH]n1
Second: Cc1ccccc1-c1nc2c(s1)C(S(=O)(=O)Cc1ccccc1)Cc1c(OCC(=O)O)cccc1-2 (centres undefined)
The melting point of the first is higher: 194 °C for the first, 192 to 193 °C for the second.

First: CCCOc1ccccc1-c1cc(C)c(C(=O)O)c(=O)[nH]1
Second: CCOC(=O)c1c(-c2ccccc2Cl)c2cc(C)cc(C)c2[nH]c1=O
The melting point of the first is lower: 175 to 177 °C for the first, 257 to 258 °C for the second.

Compared with `Nc1nc(N)nc(N2CCC3(CC2)OCCO3)n1`, `Nc1nc(Cl)nc(C2CC2)n1` is lower in melting point: 209 to 211 °C for the first, 139 to 142 °C for the second.

First: Cc1ccc2c(c1)CN(C)C(c1ccc(C(C)(C)C)cc1)C2 (centres undefined)
Second: CC(C)(C)c1ccc(N2C[C@@H](COS(C)(=O)=O)CC2=O)cc1
The melting point of the first is lower: 106 to 108 °C for the first, 108 to 109 °C for the second.

First: CC(=O)OC1CC2(C)C(=O)CCC2C2C(CCCCCCCCCCl)CC3=CC(=O)CCC3C12 (centres undefined)
Second: CCCCC[C@H]1CC[C@H](c2nc(Cl)c(OC)c(Cl)n2)CC1
The melting point of the first is higher: 113 to 115 °C for the first, 29.5 to 30.4 °C for the second.

Compared with `Cc1nc(N)c2nc(C)n(CCOCCN)c2c1C`, `CCOC(=O)CCCc1oc(-n2ccnc2C)nc1-c1ccc(Cl)cc1` is lower in melting point: 130 to 133 °C for the first, 72 to 73 °C for the second.

Compared with `Clc1ccc2c(c1)CNc1ccccc1C2`, `Cc1cccc(CN2CCC(c3cc(-c4ccc(Cl)cc4)[nH]n3)CC2)c1` is lower in melting point: 132 to 135 °C for the first, 119 to 120 °C for the second.

Compared with `O=C1CCCC12CCOc1ccc(F)cc12` (centres undefined), `O=C1C(=O)c2ccccc2C2=C1SCC1(CCN(C(=O)c3ccncc3)CC1)O2` is higher in melting point: 49 to 51 °C for the first, 267 to 269 °C for the second.

First: CN(C)CC1Cc2ccccc2N(S(C)(=O)=O)C1 (centres undefined)
Second: CC(C)S(=O)(=O)c1ccccc1S(N)(=O)=O
The melting point of the first is lower: 69 to 70 °C for the first, 150 to 153 °C for the second.

Compared with `CC(C)(C)c1cc(CCc2ccccc2NC(=O)NC2CCN(Cc3ccc(F)c(F)c3)CC2)cc(C(C)(C)C)c1O`, `Cc1ccc(OC(C)C(=O)c2cc(C(C)(C)C)c(O)c(C(C)(C)C)c2)c(-n2nc3ccccc3n2)c1` (centres undefined) is higher in melting point: 155 to 156 °C for the first, 161 °C for the second.

`COC(=O)c1ccccc1OCc1ccc(COc2ccccc2C(=O)OC)cc1` and `N#Cc1cc(C(=O)NNC(=O)c2occc2-c2ccccc2OCc2ccccc2)ccc1O` cannot be ordered by melting point: 115 to 120 °C for the first, 118 to 120 °C for the second.

First: CC1(C)CN(Cc2cc(F)ccc2F)c2cc(-c3ccc(C(=O)N4CCC[C@H]4CN4CCCC4)cc3)cnc2N1
Second: Cc1c(C(=O)N[C@H](C)[C@](O)(Cn2cncn2)c2ccc(F)cc2F)cnn1-c1ccc(Cl)cc1
The melting point of the first is lower: 74 to 77 °C for the first, 154 to 155 °C for the second.

Compared with `COc1cc(C(=O)C(=O)O)cc([N+](=O)[O-])c1O`, `O=C(O)c1ccc(C(F)(F)C(F)(F)F)cc1[N+](=O)[O-]` is lower in melting point: 165 to 167 °C for the first, 124 to 135 °C for the second.

Compared with `CN1C(CO)=Cc2cc(S(N)(=O)=O)sc2S1(=O)=O`, `NS(=O)(=O)c1cc2c(cc1Cl)NC(CCCCCO)NS2(=O)=O` (centres undefined) is higher in melting point: 144 to 146 °C for the first, 190 °C for the second.

First: CC(=O)NC1c2ccccc2-c2[nH]c(=O)c3nccn3c21 (centres undefined)
Second: CC(C)C1(C)C(=O)NC2c3ccccc3C(=O)N21 (centres undefined)
The melting point of the first is higher: 330 °C for the first, 178 to 200 °C for the second.

First: C=COCCN1C(=O)CN(c2ccccc2)C1=O
Second: O=Cc1ccc2c(c1)S(=O)(=O)c1ccccc1N2c1ccccc1
The melting point of the first is lower: 119 to 120 °C for the first, 260 to 272 °C for the second.

First: C[Si](C)(C)c1ccc(F)c([Si](C)(C)C)c1C(=O)N1CCCC1
Second: CC1(C)CCCC(C)(C)N1c1nc(N2CCCC2)cc(N2CCNCC2)n1
The melting point of the first is lower: 97 to 100 °C for the first, 134 to 137 °C for the second.

First: COc1ccc2cc(-c3noc4cc(OC)ccc34)ccc2c1
Second: CC(=O)c1ccc(-c2ccc(OCc3ccc4ccccc4n3)cc2)c([N+](=O)[O-])c1
The melting point of the first is lower: 141 to 143 °C for the first, 160 to 162 °C for the second.

First: CCC(=O)OCC1OC(n2c(Cl)c(C=O)c3cc(Cl)c(Cl)cc32)C(O)C1O (centres undefined)
Second: CCc1cc(Cl)c(NN)c(Cl)c1
The melting point of the first is higher: 139 to 140 °C for the first, 48 to 50 °C for the second.

First: C=C(C)C(=O)OCCCCc1ccc(OC(F)(F)c2c(F)cc(-c3ccc(CCCCOC(=O)C(=C)C)cc3F)cc2F)cc1
Second: Cn1c(=O)c(-c2c(Cl)cccc2Cl)cc2cnc(Nc3ccc(CCCC(=O)O)cc3)nc21
The melting point of the first is lower: 128 °C for the first, 169 to 171 °C for the second.

First: CC(C)(NCc1ccc(Oc2ccc3c(c2)OCO3)cc1)C(N)=O
Second: CCc1oc2ccccc2c1C(=O)N(Cc1ccccc1)Cc1ccc2c(Br)c(O)ccc2c1
The melting point of the first is lower: 123 to 124 °C for the first, 125 to 130 °C for the second.

Compared with `CCCc1c(SCCCCSc2nc3ccc(C(=O)O)cc3[nH]2)ccc(C(C)=O)c1O`, `COc1ccccc1Sc1c(O)c2c(Cl)cc(Cl)cc2[nH]c1=O` is higher in melting point: 90 to 95 °C for the first, 269 to 270 °C for the second.

First: Cc1cc(-c2nn(-c3cccc(C(F)(F)F)c3)ccc2=O)n(-c2ccccc2)n1
Second: COc1cc(-c2ccccc2Cl)c(Cl)cc1C(=O)N1Cc2cccn2Cc2ccccc21
The melting point of the first is lower: 167 to 168 °C for the first, 209 to 211 °C for the second.

Compared with `CCc1cccc(CC)c1NC(=O)NC1(c2ccccc2)CCC1`, `COCCN(c1cccc2cc(C(=O)O)[nH]c12)S(=O)(=O)c1cccs1` is lower in melting point: 227 to 230 °C for the first, 216 to 217 °C for the second.

First: CCc1scc2c1CN(S(=O)(=O)c1ccc(C)cc1)C2
Second: Cc1cc(C)cc(S(=O)(=O)n2c(COC(C)(C)C(=O)O)cc3nc(Cl)ccc32)c1
The melting point of the first is lower: 117 to 120 °C for the first, 154 °C for the second.

Compared with `Cn1c(C2=CC(=O)c3ccccc3C2=O)ccc1C1=CC(=O)c2ccccc2C1=O`, `O=c1[nH]c2cc([N+](=O)[O-])ccc2n(Cc2ccc(P(=O)(O)O)cc2)c1=O` is lower in melting point: 320 to 321 °C for the first, 253 to 265 °C for the second.

First: CC(=O)OCc1cncc(COc2cc3c(=O)c(Cc4cccnc4)cn4c5ccc(Br)cc5c(c2)c34)c1
Second: Cc1cc(CCCCCOc2cc(Cl)c(-c3nnco3)c(Cl)c2)on1
The melting point of the first is higher: 83.5 to 84.5 °C for the first, 73 to 74 °C for the second.

First: CNc1nc(C)c(C(=O)C(C#N)=CN(C)C)s1
Second: CCc1c(C)sc2nc(C(C)C)c(CO)c(-c3ccc(F)cc3)c12
The melting point of the first is higher: 245 to 246 °C for the first, 188 to 191 °C for the second.

Compared with `O=[N+]([O-])c1ccc2c(Nc3ccncc3)noc2c1`, `Cc1cncn1Cc1ccc(N)cc1` is lower in melting point: 296 to 300 °C for the first, 124 to 125 °C for the second.

First: COc1cccc(-c2cc(C(C)(C)C)c(O)c(C(C)(C)C)c2)c1
Second: CCOC(=O)c1cn(-c2ncc(Cl)cc2Cl)cn1
The melting point of the first is lower: 96 to 98 °C for the first, 114 to 115 °C for the second.

With `N#Cc1ccc(OCC(O)CN2CC3CC(C2)CN(C(=O)OCCCl)C3)cc1` (centres undefined) the melting point was 104 to 105 °C.
